Several values for one entry are separate records, joined by “and”; a condition that tells them apart may be missing. Equal values may be shown once. Read-outs that look alike come from different tables or passages of the source.
Columns and labels:
rLTR4 RNA G4 = assay: Native ESI-MS, rLTR4; format: binding, HIV-1; settings: 10 μM RNA, 20 μM ligand, 100 mM ammonium acetate
Description: Oligonucleotides were purchased lyophilized and RP-cartridge purified from Eurogentec (Kanaka Eurogentec, Seraing, Belgium), then buffer exchanged with ammonium acetate (5 M; Sigma-Aldrich, Saint-Quentin-Fallavier, France) using Amicon Ultra (3 K cut-off; Merck Millipore, Cork, Ireland). The concentrations of the initial stock solutions of DNA/RNA (∼1 mM) were measured by UV absorbance at 260 nm. Sample solutions were prepared by diluting the appropriate volume of oligonucleotide stock solutions to reach 10 μM of DNA/RNA and 20 μM of ligand, in 100 mM ammonium acetate. The solutions were incubated for 16 h at 4 °C before analysis by mass spectrometry. […] These parameters ensured a good signal intensity without disrupting noncovalent complexes, which was verified using d[G4T4G4]2 as a control. The presented spectra of all DNA/RNA used in this work (Fig. 5, S9 and S10) result from 8 min accumulations. The abundance of each species, M, M + 1L, M + 2L and M + 3L complexes, where M is a monomer oligonucleotide and L is a ligand, was determined from their peak area signals (A), from the sum of the −4, −5 and −6 charge states for DNA and from the sum of the −5, −6 and −7 charge states for RNA, assuming that their response factors are equal. The molar concentrations were then calculated knowing the total amount of oligonucleotide [M]tot: [drawing 1] [drawing 2] [drawing 3] [drawing 4] The concentration of the free ligand, [L]free, was determined from its total concentration [L]tot:[L]free = [L]tot − [M + 1L] − 2[M + 2L] − 3[M + 3L]Apparent consecutive dissociation constants (Kd1, Kd2 and Kd3) were calculated by using the following equations: [drawing 5] [drawing 6] [drawing 7]
We further analysed the formation of the DBA/G4 complexes by native electrospray ionization mass spectrometry (ESI-MS). We initially attempted to analyze DBA binding to the primary G4 targets from HIV-1 (HIVpro1, HIVpro2, LTR4 and rLTR4 RNA). […] These sequences span the major G4 topological classes and provide a representative assessment of DBA binding across diverse G4 architectures. We also included two DNA duplex controls (DK100 and DK66) to evaluate binding selectivity. This ESI-MS approach enables direct determination of binding stoichiometry, quantification of each species in solution, and calculation of dissociation constants (Kd) from the relative abundances of free and bound forms.[88,97]
In the ESI-MS conditions, the rLTR4 G4 (10 μM) forms a dimeric structure. […] Among the six DNA and RNA tested here (Fig. 5B, S9 and S10) only rLTR4 presented 1 : 3 G4/DBA complexes. In all cases but one, the 1 : 1 stoichiometry represents the major species in solution while for rLTR4 it is the 1 : 2 (green). […] For TG4T tetramolecular G4 or G4T4G4 bimolecular G4 only 1 : 1 and 1 : 2 complexes were detected (Fig. S9A and S10A). […] The weakest binding was obtained for the G4T4G4 antiparallel G4 and Htel sequence with Kd1s ranging from 11 μM for to 500 μM (Table 2).

TG4T (DNA, G4) TGGGGT = assay: native ESI-MS; settings: 100 mM ammonium acetate (NH4+), no K+; apparent, site 1 of 2; 10 μM DNA, 20 μM ligand, 4 °C incubation
[1] = tested on: HIVpro1-FT (anti-parallel DNA G4); assay: FRET melting assay, HIVpro1-FT; format: binding, HIV-1; settings: ligand 1 μM, DNA 0.2 μM
Description: Doubly labelled oligonucleotides with fluorescein and TAMRA were purchased lyophilized and RP-cartridge purified from Eurogentec (Kanaka Eurogentec, Seraing, Belgium). FRET melting experiments were run on Stratagene Mx3005P real-time PCR equipment in 96-well plates on the DNA sequences listed Table 1. Experiments were performed in 10 mM lithium cacodylate buffer (pH 7.2) and 10 mM KCl and 90 mM LiCl as previously described.[45,46] The DNA concentration was 0.2 μM. The stabilization (ΔT1/2) induced by compounds was calculated as the difference between the Tm of the nucleic acid alone and that measured with a ligand concentration of 1 μM. Data are presented as averages of three independent measurements, each conducted in duplicate (λexc = 492 nm, λem = 516 nm, T interval = 25–95 °C, ramp: 25 °C for 5 min, then 1 °C min^−1, measurements every 1 °C, 8× magnification of the fluorescence signal). The G4 selectivity of the ligands with respect to the duplex was evaluated by determining the Tm values in the presence of 0, 3 or 10 μM of the duplex competitor ds26.
In this assay, we performed thermal denaturation experiments by heating and recording the fluorescence of DNA oligonucleotides doubly labelled with fluorescein and TAMRA fluorophores (Fig. 3 and S7). Ligand binding to the G4 stabilises the structure, resulting in an increase in the half-dissociation temperature of the structure (ΔT1/2). As a first approximation, the higher the ΔT1/2 (ΔT1/2 higher), the higher the affinity of the ligand for the target.[45]
The fluorescently labeled oligonucleotides were dissolved at a concentration of 0.2 μM in 10 mM lithium cacodylate buffer (pH 7.2) with 10 mM KCl and 90 mM LiCl. […] E) Radar plot representation that summarizes the FRET-melting results (ΔT1/2 (°C)) for each ligand in the presence of HIVpro1-FT (green), HIVpro2-FT (grey), LTR4-FT (bleu), and Htel-FT (red). Data are the results of at least three independent experiments in which each data point was performed in duplicate.

[2] = tested on: DK100 (DNA, duplex) CGCGGGCCCGCG; assay: native ESI-MS; settings: 100 mM ammonium acetate (NH4+), no K+, apparent, 10 μM DNA, 20 μM ligand, 4 °C incubation

| Structure (SMILES) | Kd (rLTR4 RNA G4; read-out: Kd1 rLTR4) | Kd (rLTR4 RNA G4; read-out: Kd2 rLTR4) | Kd (rLTR4 RNA G4; read-out: Kd3 rLTR4) | Kd1 (TG4T (DNA, G4) TGGGGT) | ΔT1/2 HIVpro1 ([1]; +10µM ds26) | ΔT1/2 HIVpro1 ([1]; No ds26) | Kd1 ([2]; almost no complex detected) | Kd1 ([2]; site 1 of 2) | Kd1 ([2]; site 1 of 2, almost no complex) |
| --- | --- | --- | --- | --- | --- | --- | --- | --- | --- |
| COc1ccc2c(ccc3c2cc2c4ccc(OC)cc4ccc2[n+]3-c2ccccc2)c1 [DBA1] | 20.2 µM | 0.55 µM | 22.8 µM | 14.69 µM | 4.4±0.7 °C | 6.9±0.04 °C | 1027.52 µM |  |  |
| COc1ccc2c(ccc3c2cc2c4ccc(OC)cc4ccc2[n+]3-c2ccc([N+](=O)[O-])cc2)c1 [DBA4] | 10.4 µM | 0.5 µM | 21.3 µM | 5.42 µM | 5.1±0.5 °C | 7.0±2.0 °C and 7 °C |  | 38.42 µM |  |
| COc1ccc(-[n+]2c3ccc4cc(OC)ccc4c3cc3c4ccc(OC)cc4ccc32)cc1 [DBA3] | 12.2 µM | 0.14 µM | 31 µM | 13.62 µM | 5.0±0.1 °C | 6.3±0.7 °C and 6.3 °C |  |  | 155.63 µM |
| c1ccc(-[n+]2c3ccc4ccccc4c3cc3c4ccccc4ccc32)cc1 [DBA5] | 4.99 µM | 10 µM | 1.47 µM | 21.57 µM | 3.6±0.04 °C | 5.0±0.03 °C |  | 40.04 µM |  |
| COC(=O)c1ccc(-[n+]2c3ccc4cc(OC)ccc4c3cc3c4ccc(OC)cc4ccc32)cc1 [DBA2] | 10.9 µM | 0.69 µM |  | 6.09 µM | 3.9±0.2 °C | 5.6±0.3 °C and 5.6 °C | 833.14 µM |  |  |

From article PMC13334477 (RSC Medicinal Chemistry, 2026)
